Test results reported in ChEMBL document CHEMBL5346969 (J Med Chem, 2023).
pIC50, pKi: −log10 of the molar value. In brackets after ≈: the same amount, converted by molar mass. Activity calls are given as the source filed them. No cut-off for these calls is given here.

Key:
[1] = target: T1, Phospholipid hydroperoxide glutathione peroxidase GPX4 (Homo sapiens) (UniProt P36969); test: Inhibition of GPX4 (unknown origin) at 1 uM incubated for 1 hrs in presence of glutathione and glutathione reductase by microplate reader analysis
T1 sequence (whole entry): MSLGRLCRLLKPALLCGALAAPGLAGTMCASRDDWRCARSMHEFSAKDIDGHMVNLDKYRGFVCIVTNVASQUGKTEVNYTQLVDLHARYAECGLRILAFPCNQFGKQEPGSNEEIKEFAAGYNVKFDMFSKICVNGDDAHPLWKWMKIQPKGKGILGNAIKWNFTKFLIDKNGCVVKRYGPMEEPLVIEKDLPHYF

[2] = Toxicity in immunodeficient BALB/c mouse assessed as change in CK level at 20 mg/kg, ip for 14 days by biochemical analysis; format: organism-based; details: in vivo, 336 h, time 14 day
MDA-MB-231 [3] = test: Induction of ferroptosis-mediated morphological changes in human MDA-MB-231 cells assessed as round and vacuolated cells at 20 nM incubated for 6 hrs by TEM analysis; format: functional, cell-based
MDA-MB-231 [4] = test: Induction of ferroptosis in human MDA-MB-231 cells assessed as increase in intracellular lipid peroxidase by measuring increase in green fluorescence intensity at 5 to 20 nM incubated for 8 hrs by C11-BODIPY-581/591 staining based confocal laser microscopy; format: functional, cell-based; details: dose 5-20 nM
[5] = Toxicity in immunodeficient BALB/c mouse xenografted with human MDA-MB-231 cells assessed as morphological changes in liver at 20 mg/kg, ip for 21 days by H and E staining based microscopy; format: organism-based; details: in vivo, 504 h, time 21 day
MDA-MB-231 [6] = test: Induction of ferroptosis in human MDA-MB-231 cells with assessed as change in ACSL4 protein expression level at 5 to 20 nM incubated for 8 hrs in presence of ferroptosis inhibitor, ferrostatin-1 by Western blot analysis; format: functional, cell-based; details: dose 5-20 nM
MDA-MB-231 [7] = test: Induction of ferroptosis in human MDA-MB-231 cells assessed as cell viability incubated for 72 hrs in presence of deferoxamine by MTT assay; format: functional, cell-based; details: MDA-MB-231, 72 h
MDA-MB-231 [8] = test: Induction of ferroptosis in human MDA-MB-231 cells assessed as cell viability incubated for 72 hrs in presence of N-acetyl-L-cysteine by MTT assay; format: functional, cell-based; details: MDA-MB-231, 72 h
[9] = Toxicity in immunodeficient BALB/c mouse xenografted with human MDA-MB-231 cells assessed as morphological changes in kidney at 20 mg/kg, ip for 21 days by H and E staining based microscopy; format: organism-based; details: in vivo, 504 h, time 21 day
MCF-10A = test: Cytotoxicity against human MCF-10A cells assessed as inhibition of cell viability at 1 uM incubated for 72 hrs by MTT assay; format: toxicity, cell-based
MDA-MB-231 [10] = test: Induction of ferroptosis in human MDA-MB-231 cells assessed as cell viability incubated for 72 hrs in presence of ferroptosis inhibitor, ferrostatin-1 by MTT assay; format: functional, cell-based; details: MDA-MB-231, 72 h
MDA-MB-231 [11] = test: Induction of ferroptosis in human MDA-MB-231 cells assessed as cell viability incubated for 72 hrs in presence of autophagy inhibitor, 3-MA by MTT assay; format: functional, cell-based; details: MDA-MB-231, 72 h
[12] = Solubility of compound at pH 7.4; format: physicochemical; details: buffer
MDA-MB-231 [13] = test: Induction of ferroptosis-mediated antitumor activity against human MDA-MB-231 cells xenografted in immunodeficient BALB/C mouse assessed as reduction in GPX4 level in tumor tissue at 5 to 20 mg/kg,ip for 21 days by Western blot analysis; format: functional, organism-based; details: dose 5-20 mg/kg, time 21.0 day
MDA-MB-231 [14] = test: Induction of ferroptosis in human MDA-MB-231 cells assessed as cell viability at 1 uM incubated for 72 hrs in presence of autophagy inhibitor, 3-MA by MTT assay; format: functional, cell-based
MDA-MB-231 [15] = test: Induction of ferroptosis in human MDA-MB-231 cells with assessed as increase in ACSL4 protein expression level at 5 to 20 nM incubated for 8 hrs by Western blot analysis; format: functional, cell-based; details: dose 5-20 nM
MDA-MB-231 [16] = test: Induction of ferroptosis in human MDA-MB-231 cells assessed as increase in intracellular ROS accumulation by measuring green fluorescence intensity at 20 nM incubated for 8 hrs in presence of ferroptosis inhibitor, ferrostatin-1 by DCFH-DA staining based confocal laser microscopy; format: functional, cell-based
[17] = target: T2, Phospholipid hydroperoxide glutathione peroxidase GPX4 (Homo sapiens, UniProt P36969); test: Covalent inhibition of GPX4 (unknown origin) assessed as inhibition constant incubated for 30 to 90 mins in presence of glutathione, glutathione reductase and NADPH by microplate reader analysis
T2 sequence (P36969 whole entry): T1 sequence (whole entry)

HT-29 = test: Antiproliferative activity against human HT-29 cells assessed as inhibition of cell viability at 1 uM incubated for 72 hrs by MTT assay; format: functional, cell-based
MDA-MB-231 [18] = test: Induction of ferroptosis in human MDA-MB-231 cells assessed as cell viability at 1 uM incubated for 72 hrs in presence of N-acetyl-L-cysteine by MTT assay; format: functional, cell-based
MDA-MB-468 = test: Antiproliferative activity against human MDA-MB-468 cells assessed as inhibition of cell viability at 1 uM incubated for 72 hrs by CCK-8 assay; format: functional, cell-based
MDA-MB-231 [19] = test: Induction of ferroptosis-mediated morphological changes in human MDA-MB-231 cells assessed as decreased or absence of mitochondrial crests at 20 nM incubated for 6 hrs by TEM analysis; format: functional, cell-based
MDA-MB-231 [20] = test: Induction of ferroptosis in human MDA-MB-231 cells assessed as cell viability at 1 uM incubated for 72 hrs in presence of ferroptosis inhibitor, ferrostatin-1 by MTT assay; format: functional, cell-based
[21] = Toxicity in immunodeficient BALB/c mouse xenografted with human MDA-MB-231 cells assessed as morphological changes in lung at 20 mg/kg, ip for 21 days by H and E staining based microscopy; format: organism-based; details: in vivo, 504 h, time 21 day
Hep 3B2 = test: Antiproliferative activity against human Hep3B cells assessed as inhibition of cell viability at 1 uM incubated for 72 hrs by MTT assay; format: functional, cell-based
MDA-MB-231 [22] = test: Induction of ferroptosis in human MDA-MB-231 cells assessed as cell viability at 1 uM incubated for 72 hrs in presence of apoptosis inhibitor, Z-VAD-FMK by MTT assay; format: functional, cell-based
MDA-MB-231 [23] = test: Induction of ferroptosis-mediated morphological changes in human MDA-MB-231 cells assessed as change in nuclear morphology at 20 nM incubated for 6 hrs by TEM analysis; format: functional, cell-based
[24] = Toxicity in immunodeficient BALB/c mouse assessed as change in BUN level at 20 mg/kg, ip for 14 days by biochemical analysis; format: organism-based; details: in vivo, 336 h, time 14 day
4T1 = test: Antiproliferative activity against mouse 4T1 cells assessed as inhibition of cell viability at 1 uM incubated for 72 hrs by MTT assay; format: functional, cell-based
MDA-MB-231 [25] = test: Induction of ferroptosis-mediated morphological changes in human MDA-MB-231 cells assessed as broken outer membrane at 20 nM incubated for 6 hrs by TEM analysis; format: functional, cell-based
MDA-MB-231 [26] = test: Inhibition of colony formation in human MDA-MB-231 cells at 20 nM incubated for 14 days by crystal violet staining based assay; format: functional, cell-based; details: time 14.0 day
MDA-MB-231 [27] = test: Induction of ferroptosis in human MDA-MB-231 cells assessed as cell viability incubated for 72 hrs in presence of glutathione by MTT assay; format: functional, cell-based; details: MDA-MB-231, 72 h
MDA-MB-231 [28] = test: Induction of ferroptosis in human MDA-MB-231 cells assessed as cell viability at 1 uM incubated for 72 hrs in presence of glutathione by MTT assay; format: functional, cell-based

| Compound | inhibition [1] | Activity [2] | Activity (MDA-MB-231 [3]) | Activity (MDA-MB-231 [4]) | Activity [5] | Activity (MDA-MB-231 [6]) | pIC50 (MDA-MB-231 [7]) | pIC50 (MDA-MB-231 [8]) | Activity [9] | Activity (MCF-10A) | pIC50 (MDA-MB-231 [10]) | pIC50 (MDA-MB-231 [11]) | solubility [12] | Activity (MDA-MB-231 [13]) | Activity (MDA-MB-231 [14]) | Activity (MDA-MB-231 [15]) | Activity (MDA-MB-231 [16]) | pKi [17] | Activity (HT-29) | Activity (MDA-MB-231 [18]) | also measured |
| --- | --- | --- | --- | --- | --- | --- | --- | --- | --- | --- | --- | --- | --- | --- | --- | --- | --- | --- | --- | --- | --- |
| COc1cc(N(C(=O)CCl)c2ccc3c(c2)OCCO3)cc(OC)c1F | 98.8% | Toxic | Active | Dose-Dependent Effect | Non-Toxic | inactive | 5.59 | < 4.70 | Non-Toxic | Non-Toxic | 5.59 | 7.74 | 3.63 µg/mL (≈ 9.51 µM) | Active | inactive | Active | inactive | 6.20 | inactive | Active | Activity (MDA-MB-468): Active; Activity (MDA-MB-231 [19]): Active; Activity (MDA-MB-231 [20]): Active; Activity [21]: Non-Toxic; Activity (Hep 3B2): inactive; Activity (MDA-MB-231 [22]): inactive; Activity (MDA-MB-231 [23]): inactive; Activity [24]: Toxic; Activity (4T1): Active; Activity (MDA-MB-231 [25]): Active; inhibition (MDA-MB-231 [26]): Active; pIC50 (MDA-MB-231 [27]): < 4.70; Activity (MDA-MB-231 [28]): Active |
| COc1cc(N(C(=O)CBr)c2ccc3c(c2)OCCO3)cc(OC)c1F | 97.4% | Toxic | Active | Dose-Dependent Effect | Non-Toxic | inactive | 5.73 | < 4.70 | Non-Toxic | Non-Toxic | 5.76 | 7.74 | 3.3 µg/mL (≈ 7.74 µM) | Active | inactive | Active | inactive | 6.23 | inactive | Active | Activity (MDA-MB-468): Active; Activity (MDA-MB-231 [19]): Active; Activity (MDA-MB-231 [20]): Active; Activity [21]: Non-Toxic; Activity (Hep 3B2): inactive; Activity (MDA-MB-231 [22]): inactive; Activity (MDA-MB-231 [23]): inactive; Activity [24]: Toxic; Activity (4T1): Active; Activity (MDA-MB-231 [25]): Active; inhibition (MDA-MB-231 [26]): Active; pIC50 (MDA-MB-231 [27]): < 4.70; Activity (MDA-MB-231 [28]): Active |
